Reference: publication PMC10107428 (Chemistry (Weinheim an Der Bergstrasse, Germany), 2022)

Molecular target: T1, Galectin-8 (Gal8-6FW) (Homo sapiens, UniProt O00214)
T1 sequence (O00214 1-317): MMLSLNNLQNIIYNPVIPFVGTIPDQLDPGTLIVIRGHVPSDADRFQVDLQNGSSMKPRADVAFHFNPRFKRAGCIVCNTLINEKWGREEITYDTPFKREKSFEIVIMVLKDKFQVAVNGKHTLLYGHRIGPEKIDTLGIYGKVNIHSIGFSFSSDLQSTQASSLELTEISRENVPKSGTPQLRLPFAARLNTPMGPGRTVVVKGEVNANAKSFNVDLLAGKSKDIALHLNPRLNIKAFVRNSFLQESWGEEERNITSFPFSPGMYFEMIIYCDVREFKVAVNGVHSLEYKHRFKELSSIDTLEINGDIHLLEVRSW
Test: […] NMR titration
Format: binding

In the case of `OC[C@H]1O[C@@H](O[C@H]2[C@H](O)[C@@H](O)C(O)O[C@@H]2CO)[C@H](O)[C@@H](O)[C@H]1O` (stereo partly shown) [lactose], the “19F NMR titration” value is reported as “Lactose binds to both domains of Gal8 with very similar and weak affinities”.
